Legend:
Format in all cases: in vivo
Echinochloa crus-galli [1] = experiment: Test Example 3: herbicidal effect test by soil application in upland field; conditions: 120 g per 10 ares, sprayed one day after sowing, 14 days after application; for inhibition at 1200 g/ha: Echinochloa crus-galli, read-out: weed inhibition rate
Summary of the method: (§1)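 Weed inhibition (%) was assessed 14 days after treatment, in duplicate per concentration group. Seeds had been mixed into the upper 1 cm of upland alluvial loam, and the soil surface was sprayed one day later with the diluted emulsifiable concentrate at 120 g active ingredient per 10 ares.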

Digitaria ciliaris [2] = experiment: as above; conditions: 120 g per 10 ares, sprayed one day after sowing, 14 days after application; for inhibition at 1200 g/ha: Digitaria ciliaris, read-out: weed inhibition rate
Summary of the method: as §1

Digitaria ciliaris [3] = experiment: Test Example 4: herbicidal effect test by stem and leaf treatment in upland field; conditions: 120 g per 10 ares, sprayed seven days after sowing, upland soil, 14 days after application; for inhibition at 1200 g/ha: Digitaria ciliaris, read-out: weed inhibition rate
Echinochloa crus-galli [4] = experiment: as above; conditions: 120 g per 10 ares, sprayed seven days after sowing, upland soil, 14 days after application; for inhibition at 1200 g/ha: Echinochloa crus-galli, read-out: weed inhibition rate
[5] = test system: Echinochloa crus-galli var. formosensis; experiment: Test Example 1: herbicidal effect test by soil application in paddy rice; conditions: 120 g active ingredient per 10 ares, applied immediately after sowing, flooded pots, 14 days after application; for pest or weed control at 1200 g/ha: Echinochloa crus-galli, soil, 336 h, read-out: weed inhibition rate
Summary of the method: (§2)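 Pre-emergence paddy soil application, 120 g a.i./10 a, emulsifiable concentrate diluted in water, applied by dropper right after sowing. Seeds (30/species) sown 0–1 cm in puddled, fertilized soil; flooded ~3 cm; glass greenhouse.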

Scirpus juncoides [6] = experiment: as above; conditions: 120 g active ingredient per 10 ares, applied immediately after sowing, flooded pots, 14 days after application; for pest or weed control at 1200 g/ha: Schoenoplectiella juncoides, soil, 336 h, read-out: weed inhibition rate
Summary of the method: as §2

[7] = test system: Echinochloa crus-galli var. formosensis; experiment: Test Example 2: herbicidal effect test by application during growth period of paddy rice; conditions: 120 g per 10 ares, applied seven days after sowing, flooded pots, 14 days after application; for inhibition at 1200 g/ha: Echinochloa crus-galli, read-out: weed inhibition rate
Summary of the method: (§3)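 Steps: puddle fertilized paddy soil; sow 30 seeds of each weed at 0–1 cm; flood to roughly 3 cm and keep in a glasshouse; at day 7 drop in diluted emulsifiable concentrate (120 g a.i. per 10 ares); score inhibition (%) 14 days later, two replicates.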

Scirpus juncoides [8] = experiment: as above; conditions: 120 g per 10 ares, applied seven days after sowing, flooded pots, 14 days after application; for inhibition at 1200 g/ha: Schoenoplectiella juncoides, read-out: weed inhibition rate
Summary of the method: as §3

CC(C)[C@@]12C=C[C@@](C)(O1)[C@@H](OCc1ccccc1F)C2 [3-750, (1S,4R,5S)-5-[(2-fluorophenyl)methoxy]-4-methyl-1-isopropyl-7-oxabicyclo[2.2.1]hept-2-ene]
≥ 80%: inhibition at 1200 g/ha (Echinochloa crus-galli [1]) | inhibition at 1200 g/ha (Digitaria ciliaris [2]) | inhibition at 1200 g/ha (Digitaria ciliaris [3]) | inhibition at 1200 g/ha (Echinochloa crus-galli [4]) | pest or weed control at 1200 g/ha [5] | pest or weed control at 1200 g/ha (Scirpus juncoides [6]) | inhibition at 1200 g/ha [7] | inhibition at 1200 g/ha (Scirpus juncoides [8])

CC(C)C12CC(OCc3ccccc3OC(F)(F)F)C(C)(CC1I)O2 (stereo not drawn) [1-1418, 2-iodo-1-isopropyl-4-methyl-5-[[2-(trifluoromethoxy)phenyl]methoxy]-7-oxabicyclo[2.2.1]heptane]
≥ 80%: pest or weed control at 1200 g/ha [5] | pest or weed control at 1200 g/ha (Scirpus juncoides [6]) | inhibition at 1200 g/ha [7] | inhibition at 1200 g/ha (Scirpus juncoides [8])

CC(C)[C@@]12C=C[C@@](C)(O1)[C@@H](OCc1ccccc1)C2 [3-748, (1S,4R,5S)-4-methyl-5-phenylmethoxy-1-isopropyl-7-oxabicyclo[2.2.1]hept-2-ene]
≥ 80%: inhibition at 1200 g/ha (Echinochloa crus-galli [1]) | inhibition at 1200 g/ha (Digitaria ciliaris [2]) | inhibition at 1200 g/ha (Digitaria ciliaris [3]) | inhibition at 1200 g/ha (Echinochloa crus-galli [4]) | pest or weed control at 1200 g/ha [5] | pest or weed control at 1200 g/ha (Scirpus juncoides [6]) | inhibition at 1200 g/ha [7] | inhibition at 1200 g/ha (Scirpus juncoides [8])

CC(=O)O[C@H]1C[C@]2(C)O[C@@]1(C(C)C)C[C@H]2OCc1ccccc1F (racemic) [1-480, [(1R,2S,4S,SR)-5-[(2-fluorophenyl)methoxy]-4-methyl-1-isopropyl-7-oxabicyclo[2.2.1]heptan-2-yl]acetate]
≥ 80%: weed inhibition rate (Echinochloa crus-galli [1]) | weed inhibition rate (Digitaria ciliaris [2]) | weed inhibition rate (Digitaria ciliaris [3]) | weed inhibition rate (Echinochloa crus-galli [4]) | weed inhibition rate [5] | weed inhibition rate (Scirpus juncoides [6]) | weed inhibition rate [7] | weed inhibition rate (Scirpus juncoides [8])

C#CCO[C@H]1C[C@]2(C)O[C@@]1(C(C)C)C[C@H]2OCc1ccccc1F [1-1607, (1S,2R,4R,5S)-2-[(2-fluorophenyl)methoxy]-1-methyl-4-isopropyl-5-prop-2-ynoxy-7-oxabicyclo[2.2.1]heptane]
≥ 80%: inhibition at 1200 g/ha (Echinochloa crus-galli [1]) | inhibition at 1200 g/ha (Digitaria ciliaris [2]) | inhibition at 1200 g/ha (Digitaria ciliaris [3]) | inhibition at 1200 g/ha (Echinochloa crus-galli [4]) | pest or weed control at 1200 g/ha [5] | pest or weed control at 1200 g/ha (Scirpus juncoides [6]) | inhibition at 1200 g/ha [7] | inhibition at 1200 g/ha (Scirpus juncoides [8])

CC(C)[C@@]12C[C@H](OCc3ccccn3)[C@@](C)(C[C@H]1I)O2 [1-1126, 2-[[(1R,2S,4S,5R)-5-iodo-1-methyl-4-isopropyl-7-oxabicyclo[2.2.1]heptan-2-yl]oxymethyl]pyridine]
≥ 80%: inhibition at 1200 g/ha (Echinochloa crus-galli [1]) | inhibition at 1200 g/ha (Digitaria ciliaris [2]) | inhibition at 1200 g/ha (Digitaria ciliaris [3]) | inhibition at 1200 g/ha (Echinochloa crus-galli [4]) | pest or weed control at 1200 g/ha [5] | pest or weed control at 1200 g/ha (Scirpus juncoides [6]) | inhibition at 1200 g/ha [7] | inhibition at 1200 g/ha (Scirpus juncoides [8])

CC(C)[C@]12C=C[C@](C)(O1)[C@H](OCc1c(Cl)cccc1Cl)C2 [3-732, (1R,4S,5R)-5-[(2,6-dichlorophenyl)methoxy]-4-methyl-1-isopropyl-7-oxabicyclo[2.2.1]hept-2-ene]
≥ 80%: inhibition at 1200 g/ha (Echinochloa crus-galli [1]) | inhibition at 1200 g/ha (Digitaria ciliaris [2]) | inhibition at 1200 g/ha (Digitaria ciliaris [3]) | inhibition at 1200 g/ha (Echinochloa crus-galli [4]) | pest or weed control at 1200 g/ha [5] | pest or weed control at 1200 g/ha (Scirpus juncoides [6]) | inhibition at 1200 g/ha [7] | inhibition at 1200 g/ha (Scirpus juncoides [8])

Cc1ccccc1CO[C@H]1C[C@]2(C(C)C)C=C[C@@]1(C)O2 [3-749, (1S,4R,5S)-4-methyl-5-[(2-methylphenyl)methoxy]-1-isopropyl-7-oxabicyclo[2.2.1]hept-2-ene]
≥ 80%: inhibition at 1200 g/ha (Echinochloa crus-galli [1]) | inhibition at 1200 g/ha (Digitaria ciliaris [2]) | inhibition at 1200 g/ha (Digitaria ciliaris [3]) | inhibition at 1200 g/ha (Echinochloa crus-galli [4]) | pest or weed control at 1200 g/ha [5] | pest or weed control at 1200 g/ha (Scirpus juncoides [6]) | inhibition at 1200 g/ha [7] | inhibition at 1200 g/ha (Scirpus juncoides [8])

Cc1noc(C)c1CO[C@@H]1C[C@]2(C(C)C)O[C@@]1(C)C[C@@H]2I [1-790, 4-[[(1S,2R,4R,5S)-5-iodo-4-isopropyl-1-methyl-7-oxabicyclo [2.2.1]heptane-2-yl]oxymethyl]-3,5-dimethyl-isoxazole]
≥ 80%: pest or weed control at 1200 g/ha [5] | pest or weed control at 1200 g/ha (Scirpus juncoides [6]) | inhibition at 1200 g/ha [7] | inhibition at 1200 g/ha (Scirpus juncoides [8])

CC(C)[C@]12CC(OCc3ccccc3OC(F)(F)F)[C@](C)(C[C@@H]1Cl)O2 (mixture of isomers) [1-627, (1R,2S,4S,SR)-2-chloro-1-isopropyl-4-methyl-5-[[2-(trifluoromethoxy)phenyl]methoxy]-7-oxabicyclo[2.2.1]heptane]
≥ 80%: pest or weed control at 1200 g/ha [5] | pest or weed control at 1200 g/ha (Scirpus juncoides [6]) | inhibition at 1200 g/ha [7] | inhibition at 1200 g/ha (Scirpus juncoides [8])

CC(C)C12CC(OCc3ccccc3C(F)(F)F)C(C)(CC1Cl)O2 (stereo not drawn) [1-1301, 5-chloro-1-methyl-4-isopropyl-2-[[2-(trifluoromethyl)phenyl]methoxy]-7-oxabicyclo[2.2.1]heptane]
≥ 80%: pest or weed control at 1200 g/ha [5] | pest or weed control at 1200 g/ha (Scirpus juncoides [6]) | inhibition at 1200 g/ha [7] | inhibition at 1200 g/ha (Scirpus juncoides [8])

Cc1noc(C)c1COC1CC2(C(C)C)OC1(C)CC2Cl (stereo not drawn) [1-1325, 4-[(5-chloro-4-isopropyl-1-methyl-7-oxabicyclo[2.2.1]heptan-2-yl)oxymethyl]-3,5-dimethyl-isoxazole]
≥ 80%: pest or weed control at 1200 g/ha [5] | pest or weed control at 1200 g/ha (Scirpus juncoides [6]) | inhibition at 1200 g/ha [7] | inhibition at 1200 g/ha (Scirpus juncoides [8])

CC(C)[C@]12C[C@@H](OCc3ccccc3C(F)(F)F)[C@](C)(C[C@@H]1I)O2 [1-765, (1R,2S,4S,5R)-2-iodo-1-isopropyl-4-methyl-5-[[2-(trifluoromethyl)phenyl]methoxy]-7-oxabicyclo[2.2.1]heptane]
≥ 80%: pest or weed control at 1200 g/ha [5] | pest or weed control at 1200 g/ha (Scirpus juncoides [6]) | inhibition at 1200 g/ha [7] | inhibition at 1200 g/ha (Scirpus juncoides [8])

CC(C)C12CC(OCc3cccnc3)C(C)(CC1Cl)O2 (stereo not drawn) [1-1321, 3-[(5-chloro-4-isopropyl-1-methyl-7-oxabicyclo[2.2.1]heptan-2-yl)oxymethyl]pyridine]
≥ 80%: pest or weed control at 1200 g/ha (Scirpus juncoides [6]) | inhibition at 1200 g/ha (Scirpus juncoides [8])

CC(C)[C@]12C[C@@H](OCc3ccccc3C(F)(F)F)[C@](C)(C[C@@H]1Cl)O2 [1-640, (1R,2S,4S,5R)-2-chloro-1-isopropyl-4-methyl-5-[[2-(trifluoromethyl)phenyl]methoxy]-7-oxabicyclo[2.2.1]heptane]
≥ 80%: pest or weed control at 1200 g/ha [5] | pest or weed control at 1200 g/ha (Scirpus juncoides [6]) | inhibition at 1200 g/ha [7] | inhibition at 1200 g/ha (Scirpus juncoides [8])

CC(C)[C@]12C[C@@H](OCc3cccnc3)[C@](C)(C[C@@H]1I)O2 [1-786, 3-[[(1S,2R,4R,5S)-5-iodo-4-isopropyl-1-methyl-7-oxabicyclo[2.2.1]heptan-2-yl]oxymethyl]pyridine]
≥ 80%: pest or weed control at 1200 g/ha (Scirpus juncoides [6]) | inhibition at 1200 g/ha (Scirpus juncoides [8])

CC(C)C12CC(OCc3ccncc3)C(C)(CC1Cl)O2 (stereo not drawn) [1-1322, 4-[(5-chloro-4-isopropyl-1-methyl-7-oxabicyclo[2.2.1]heptan-2-yl)oxymethyl]pyridine]
≥ 80%: pest or weed control at 1200 g/ha (Scirpus juncoides [6]) | inhibition at 1200 g/ha (Scirpus juncoides [8])

CC(C)[C@]12C[C@@H](OCc3ccccc3OC(F)(F)F)[C@](C)(C[C@@H]1I)O2 [1-750, (1R,2S,4S,5R)-2-iodo-1-isopropyl-4-methyl-5-[[2-(trifluoromethoxy)phenyl]methoxy]-7-oxabicyclo[2.2.1]heptane]
≥ 80%: pest or weed control at 1200 g/ha [5] | pest or weed control at 1200 g/ha (Scirpus juncoides [6]) | inhibition at 1200 g/ha [7] | inhibition at 1200 g/ha (Scirpus juncoides [8])

CC(C)C12CC(OCc3ccccc3C(F)(F)F)C(C)(CC1I)O2 (stereo not drawn) [1-1433, 2-iodo-1-isopropyl-4-methyl-5-[[2-(trifluoromethyl)phenyl]methoxy]-7-oxabicyclo[2.2.1]heptane]
≥ 80%: pest or weed control at 1200 g/ha [5] | pest or weed control at 1200 g/ha (Scirpus juncoides [6]) | inhibition at 1200 g/ha [7] | inhibition at 1200 g/ha (Scirpus juncoides [8])

Cc1noc(C)c1CO[C@@H]1C[C@]2(C(C)C)O[C@@]1(C)C[C@@H]2Cl [1-663, 4-[[(1S,2R,4R,5S)-5-chloro-4-isopropyl-1-methyl-7-oxabicyclo[2.2.1]heptan-2-yl]oxymethyl]-3,5-dimethyl-isoxazole]
≥ 80%: pest or weed control at 1200 g/ha [5] | pest or weed control at 1200 g/ha (Scirpus juncoides [6]) | inhibition at 1200 g/ha [7] | inhibition at 1200 g/ha (Scirpus juncoides [8])

From patent EP4707280A1, “1,4-CINEOLE DERIVATIVE AND INTERMEDIATE THEREOF, HERBICIDE CONTAINING SAID DERIVATIVE AS ACTIVE INGREDIENT, METHOD FOR USING HERBICIDE, AND METHOD FOR PREPARING AGROCHEMICAL COMPOSITION” (HOKKO CHEMICAL INDUSTRY CO., LTD., priority 2023, dated 2024)
